Legend:
APOL1 G2 [1] = target: T1, APOL1 G2 (Homo sapiens, UniProt O14791, DEL388-389); experiment: APOL1 G2 HEK293 rescue of cell death caused by overexpression of APOL1 (CellTiter-Glo); assay type: cell-based; conditions: HEK293/T-REx APOL1 G2 clone #2, doxycycline induction, 17 hours, CellTiter-Glo luminescence; reversal of cell death; geometric mean of at least 2 assay runs
T1 construct: expressed in transfected cells; host or cells: HEK293/T-REx APOL1 G2 clone #2, doxycycline-inducible
T1 sequence (O14791 with tags, fused parts or gaps DEL388-389): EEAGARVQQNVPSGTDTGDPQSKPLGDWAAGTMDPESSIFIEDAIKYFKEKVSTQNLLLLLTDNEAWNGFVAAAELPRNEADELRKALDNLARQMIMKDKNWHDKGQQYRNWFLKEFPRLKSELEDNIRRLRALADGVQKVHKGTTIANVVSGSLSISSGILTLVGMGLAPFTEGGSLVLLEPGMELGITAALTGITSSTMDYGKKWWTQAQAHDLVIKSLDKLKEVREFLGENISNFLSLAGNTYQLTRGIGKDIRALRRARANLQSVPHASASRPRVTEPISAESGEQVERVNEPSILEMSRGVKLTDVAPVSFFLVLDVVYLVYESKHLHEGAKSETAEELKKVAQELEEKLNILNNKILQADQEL
Description: A HEK293 clonal cell line overexpressing APOL1 G2 (HEK293/T-REx APOL1 G2/clone #2) was maintained in 1×DMEM-GlutaMax (Gibco, 10569-010) media with 10% tetracycline-free FBS (Takara Bio USA, 631101), 5 μg/mL Blasticidin (Gibco, A1113903), and 100 μg/mL Zeocin (Invitrogen, R25001) in T75 flasks. In preparation for the assay, this media was aspirated and 2 mL of prewarmed TrypLE Express (Gibco, 12605-010) was added to a flask to detach cells. The flask was then incubated (humidified, 37° C. with 5% CO2) for 3-5 minutes. Afterwards, 8 mL of prewarmed cell assay media (1×DMEM-GlutaMax media with 10% tetracycline-free FBS) was added to the trypsinized cells. The suspension was gently mixed, and cells were counted using a Countess Cell Counting Chamber (Invitrogen). The suspension was diluted using cell assay media to generate a working stock solution (166,667 cells/mL). Using a MultiDrop Combi (Thermo Electron Corp), 30 μL (final cell density=5,000 cells/well) of the working stock solution was dispensed into each well of white 384-well assay ready plates (Nunc™, 164610) containing 6 ng/mL doxycycline, to induce APOL1 expression, and compound. All compounds were plated in a duplicate 8-point dilution series that consisted of 3-fold stepwise dilutions (0.5% DMSO final). Assay plates were incubated (humidified, 37° C. with 5% CO2) for 17 hours. After the incubation, the plates were equilibrated at room temperature for 1 hour. Next, 15 μl of CellTiter-Glo® reagent (Promega, G7570) was added to each well using a MultiDrop Combi. Plates were placed on an orbital shaker (500 rpm) for 5 minutes to induce cell lysis and then incubated at room temperature for 10 minutes. Luminescence was measured on an Envision plate reader. Collaborative Drug Discovery software was utilized for graphing data. Plots were generated using a four parameter logistic curve fit.
Table B2 below provides the results from this experiment. Unless otherwise specified, EC50 values are reported as the geometric mean of at least 2 assay runs on separate days. Each run represents the average of a technical replicate, where each compound was assayed twice in the same plate. A superscript t symbol indicates a value from the average of a technical replicate from a single assay run, where each compound was assayed twice in the same plate. Compounds in Table B2 are referred to by the corresponding Compound Number in Table 1, which is also referred to in the synthetic examples. When one or more of the numbered compounds are identified by stereochemistry (for example, (R)- or (S)-), the specific stereoisomer for which data is provided in Table B2 may be identified by the elution order of such compound as described in the synthetic examples. To illustrate, Compound 2 is the first-eluting enantiomer of step 4 of Example 1 and Compound 3 is the second-eluting enantiomer of step 4 of Example 1. Further, by way of illustration, Compound 27 is the first-eluting enantiomeric mixture in step 4 of Example 7 and Compound 28 is the second-eluting enantiomeric mixture in step 4 of Example 7. Then, Compound 27 is separated into Compound 29 (the first-eluting enantiomer) and Compound 30 (the second-eluting enantiomer) in Example 8, and Compound 28 is separated into Compound 31 (the first-eluting enantiomer) and Compound 32 (the second-eluting enantiomer) in Example 8. Absolute stereochemistry of such compounds may be identified by methods known in the art.
Rescue EC50 values reported in Table B2 below represent the half-maximal effective concentration for reversal of cell death caused by overexpression of APOL1.

APOL1 G2 [2] = target: T1, APOL1 G2; experiment: APOL1 G2 FLIPR calcium influx assay (HEK T-REx/GCaMP6f/APOL1 G2 K6.3 cells); assay type: cell-based; conditions: HEK293 clone expressing GCaMP6f, doxycycline-induced APOL1 G2; prevention of calcium influx; geometric mean of at least 2 assay runs
Description: A HEK293 clonal cell line was generated to stably express GCaMP6f, a genetically encoded calcium indicator, and inducibly express APOL1 G2 (HEK T-REx/GCaMP6f/APOL1 G2 K6.3). Cells were maintained in the following standard complete medium: DMEM with 4.5 g/L glucose and sodium pyruvate (BioWhittaker, Lonza, BE12-614F), supplemented with 10% FBS Performance Plus (Gibco, 16000044), 1% penicillin-streptomycin (BioWhittaker, DE17-602E), 2 mM ultraglutamine-1 (BioWhittaker cat. BE 17-605/U1), 50 μg/mL Zeocin (InvivoGen, ant-zn), 2.5 μg/mL Blasticidin (InvivoGen, ant-bl-5), and 25 μg/mL Hygromycin (InvivoGen, ant-hg). Standard propagation conditions consisted of plating 9×10^6, 4×10^6, 2×10^6 cells in a T225 flasks to be processed after 2, 3, or 4 days, respectively.
A source plate was generated containing 20 serially diluted compounds in DMSO (duplicate 8-point dose response). Next, 0.8 μL of compounds were transferred from the source plate to a destination plate prefilled with 79.2 μL of Ca^2+ free Tyrode's buffer (130 mM NaCl, 5 mM KCl, 1 mM MgCl2, 5 mM NaHCO3, 20 mM HEPES at pH 7.4). The destination plate was placed on a plate shaker (5 seconds at 2000 rpm) to mix. […] All transfer and mixing steps were conducted with an CyBi®-Well dispenser.
Cells were split by gently washing with DPBS (Euroclone, ECB4004L), followed by a 5-minute incubation (humidified, 37° C. with 5% CO2) with trypsin-EDTA solution (Euroclone, ECB3052D). Detached cells were diluted with standard complete medium without selective agents, counted, and plated in a 384 MTP microplate (GR4332CPL, Twin Helix) (10,000 cells/well in 25 μl/well) using a MATRIX WellMate dispenser. Plates were placed into a humidified incubator (37° C. with 5% CO2) overnight. The following day, 20 μL of doxycycline (Sigma, D9891) at 20 ng/mL in standard complete medium was added to cells with a CyBi®Drop dispenser to induce APOL1 G2 expression. After a 6-hour incubation (humidified, 37° C. with 5% CO2), cells were washed 3 times with Ca^2+ free Tyrode's Buffer (130 mM NaCl, 5 mM KCl, 1 mM MgCl2, 5 mM NaHCO3, 20 mM HEPES at pH 7.4) using a BIOTEK Microplate washer, such that 10 μL of buffer remained in each well after the final wash. Assay plates were then stored at room temperature for 10 minutes. Next, 10 μL of diluted compounds were transferred to the assay plate from the 2× compound plate using a CyBi®-Well dispenser. Compound incubation was then carried out at room temperature for 10 minutes. The assay plate was transferred to the […] and 20 μL of 10 mM Ca^2+ (final concentration=5 mM) Tyrode's buffer was injected.
Table B1 below summarizes the data from this experiment. Unless otherwise specified, AC50 and values are reported as the geometric mean of at least 2 assay runs on separate days. Each run represents the average of a technical replicate, where each compound was assayed twice in the same plate. A superscript t symbol indicates a value from the average of a technical replicate from a single assay run, where each compound was assayed twice in the same plate.
The AC50 values in Table B1 below reflect the compound's ability to prevent calcium influx by inhibiting APOL1. […] Compounds in Table B1 are referred to by the corresponding Compound Number in Table 1, which is also referred to in the synthetic examples. When one or more of the numbered compounds are identified by stereochemistry (for example, (R)- or (S)-), the specific stereoisomer for which data is provided in Table B1 may be identified by the elution order of such compound as described in the synthetic examples. To illustrate, Compound 2 is the first-eluting enantiomer of step 4 of Example 1 and Compound 3 is the second-eluting enantiomer of step 4 of Example 1. Further, by way of illustration, Compound 27 is the first-eluting enantiomeric mixture in step 4 of Example 7 and Compound 28 is the second-eluting enantiomeric mixture in step 4 of Example 7. […]

Compound | EC50 (APOL1 G2 [1]) | AC50 (APOL1 G2 [2])
C[C@@H]1C[C@H](COc2ccc(S(C)(=O)=O)cc2)CN1C1CCc2ccc(Cl)cc2C1 (single isomer, unassigned) [Compound 6, (2R,4S)-1-[(2R or 2S)-7-chloro-1,2,3,4-tetrahydronaphthalen-2-yl]-4-[(4-methanesulfonylphenoxy)methyl]-2-methylpyrrolidine] | 661 nM | 839 nM
C[C@@H]1C[C@H](COc2ccc(S(C)(=O)=O)cc2)CN1C1CCc2c(C#N)cc(Cl)cc2C1 (single isomer, unassigned) [Compound 7, (6R or 6S)-3-chloro-6-[(2R,4S)-4-[(4-methanesulfonylphenoxy)methyl]-2-methylpyrrolidin-1-yl]-5,6,7,8-tetrahydronaphthalene-1-carbonitrile] | 195 nM | 1540 nM
C[C@@H]1C[C@H](COc2ccc(S(C)(=O)=O)cc2)CN1C1CCc2c(C#N)cc(Cl)cc2C1 (single isomer, unassigned) [Compound 8, (6R or 6S)-3-chloro-6-[(2R,4S)-4-[(4-methanesulfonylphenoxy)methyl]-2-methylpyrrolidin-1-yl]-5,6,7,8-tetrahydronaphthalene-1-carbonitrile] | 150 nM | 1070 nM
C[C@@H]1C[C@H](COc2ccc(S(C)(=O)=O)cc2)CN1C1CCc2c(C#N)cc(Cl)cc2C1 (single isomer, unassigned) [Compound 9, (6S or 6R)-3-chloro-6-[(2R,4S)-4-[(4-methanesulfonylphenoxy)methyl]-2-methylpyrrolidin-1-yl]-5,6,7,8-tetrahydronaphthalene-1-carbonitrile] | 516 nM | 1280 nM
CC(Cc1cc(Cl)cc(C#N)c1)N1C[C@@H](COc2ccc(S(C)(=O)=O)cc2)C[C@H]1C (single isomer, unassigned) [Compound 10, 3-chloro-5-[(2S or 2R)-2-[(2R,4S)-4-[(4-methanesulfonylphenoxy)methyl]-2-methylpyrrolidin-1-yl]propyl]benzonitrile] | 744 nM | 1020 nM
CC(Cc1cc(Cl)cc(C#N)c1)N1C[C@@H](COc2ccc(S(C)(=O)=O)cc2)C[C@H]1C (single isomer, unassigned) [Compound 11, 3-chloro-5-[(2R or 2S)-2-[(2R,4S)-4-[(4-methanesulfonylphenoxy)methyl]-2-methylpyrrolidin-1-yl]propyl]benzonitrile] | 137 nM | 1130 nM
C[C@@H]1CN(C2CCc3ccc(Cl)cc3C2)C[C@H]1COc1ccc(S(C)(=O)=O)cc1 (single isomer, unassigned) [Compound 15, (3S,4S)-1-[(2S or 2R)-7-chloro-1,2,3,4-tetrahydronaphthalen-2-yl]-3-[(4-methanesulfonylphenoxy)methyl]-4-methylpyrrolidine] | 1830 nM | 1750 nM
C[C@@H]1CN(C2CCc3ccc(Cl)cc3C2)C[C@H]1COc1ccc(S(C)(=O)=O)cc1 (single isomer, unassigned) [Compound 16, (3S,4S)-1-[(2R or 2S)-7-chloro-1,2,3,4-tetrahydronaphthalen-2-yl]-3-[(4-methanesulfonylphenoxy)methyl]-4-methylpyrrolidine] | 712 nM | 1080 nM
CC(Cc1cc(Cl)cc(C#N)c1)N1C[C@@H](COc2ccc(S(C)(=O)=O)cc2)[C@H](C)C1 (single isomer, unassigned) [Compound 18, 3-chloro-5-[(2S or 2R)-2-[(3S,4S)-3-[(4-methanesulfonylphenoxy)methyl]-4-methylpyrrolidin-1-yl]propyl]benzonitrile] | 262 nM | 412 nM
CC(Cc1cc(Cl)cc(C#N)c1)N1C[C@@H](COc2ccc(S(C)(=O)=O)cc2)[C@H](C)C1 (single isomer, unassigned) [Compound 19, 3-chloro-5-[(2R or 2S)-2-[(3S,4S)-3-[(4-methanesulfonylphenoxy)methyl]-4-methylpyrrolidin-1-yl]propyl]benzonitrile] | 640 nM | 444 nM
Cc1cc(OC[C@H]2C[C@@H](C)N(CCc3cccc(C#N)c3)C2)cnc1S(C)(=O)=O (single isomer, unassigned) [Compound 30] | 38.4 nM | 185 nM

Source: US20260055083A1, “APOL1 INHIBITORS AND METHODS OF USE” (Maze Therapeutics, Inc., priority 2022, published 2026)
